Patent US20120122791A1, “SUBSTRATE FOR CARTILAGE CULTIVATION USING ARTIFICIAL COLLAGEN, AND METHOD FOR CARTILAGE REGENERATION TREATMENT USING THE SUBSTRATE” (JNC CORPORATION, priority 2009, published 2012)

Experiments:
[1] = test system: cartilage cells; assay: Proteoglycan production ability of cartilage cells (Na2 35SO4 incorporation) by addition of artificial collagen aqueous solution; format: cell-based, New Zealand white rabbits; details: 7 days, vs 0% control
Protocol: (§1) Shoulder joints and knee joints were extirpated from 5 New Zealand white rabbits (male, 8- to 9 week-old), and only a cartilage layer was excised and sampled with a surgical knife. After washing with a sterilized PBS solution, pronase was added to 25 ml of Dulbecco's Modified Eagle's medium+gentacin (25 μg/ml) at a concentration of 0.4% (W/V), and incubation was performed at 37° C. for 2 hours. The solution was supplemented with collagenase at a concentration of 0.025% (W/V), and incubated at 37° C. overnight. The resulting solution was washed to collect cartilage cells. After that, the cartilage cells were seeded into a dish with a diameter of 90 mm at 1 to 2×10^6 cells/dish, and a medium exchange was performed once every 3 days. At the time point where the cells became confluent, subcultivation was performed only once. The following experiments were performed by using cells which had been subcultivated once. Further, the composition of a cultivation medium is as described below.
Cartilage cells in a semi-confluent state were detached from a dish by a tripsin-EDTA solution treatment, supplemented with a cultivation medium, and washed by centrifugation. After that, the cells were seeded into a 6-well plate at 1.5×10^6 cells/well and cultivated under conditions of 37° C. and 5% CO2.
At 24 hours after the start of the cultivation, a 1% (W/V) artificial collagen aqueous solution was diluted with a cultivation medium to prepare 0.10, 0.20, 0.30, 0.40, and 0.50% (W/V) artificial collagen aqueous solutions. The artificial collagen aqueous solutions were allowed to act on the cells for an additional 7 days, and further supplemented with 10 μCi/ml Na2^35SO4 to perform cultivation for the last 24 hours. A medium exchange was performed once every 3 days. It should be noted that a 0% (W/V) artificial collagen aqueous solution was used as a control.
After the completion of the above-mentioned cultivation, the cells were washed with a fresh cultivation medium, and a lysis buffer (4 M GuHCl, 0.05 M NaAC, pH 6.0) supplemented with protease inhibitors (0.1 M 6-aminohexanoic acid, 0.005 M benzamidine hydrochloride, 0.01 M Nae EDTA, 0.01 M N-ethylmaleimide, and 0.001 M phenylmethyl sulfonyl fluoride) was added into each well. The cells were extracted at 4° C. for 4 hours, and centrifuged at 15000 rpm at 4° C. for 20 minutes.
The cells were eluted with an elution buffer (4 M GuHCl, 0.05 M Na acetate, 0.1 M Na sulfate, and 0.5% Triton X-10 (pH 7.5)) by using a PD-10 pre-packed column (GE Healthcare Bio-Sciences Ltd.) to fractionate samples. To each of the fractionated samples, ethanol and a scintillator were added and mixed, and the radioactivity content (cpm) was measured with a liquid scintillation counter. Further, the DNA amount of each of the samples used in this case was measured with a Hoechst 33258 dye to determine a DNA value expressed as cpm/mg.

[2] = test system: type 2 collagen mRNA; assay: Type 2 collagen mRNA amount in cartilage cells by addition of artificial collagen aqueous solution (real-time PCR); format: cell-based, New Zealand white rabbits; details: relative to 0% defined as 1
Protocol: as §1
(§2) Cartilage cells in a semi-confluent state were detached from a dish by a tripsin-EDTA solution treatment, supplemented with a cultivation medium, and then washed by centrifugation. After that, the cells were seeded into a 12-well plate at 3×10^5 cells/well, and cultivation was started under conditions of 37° C. and 5% CO2.
(§3) At 24 hours after the start of the cultivation, a 1% (W/V) artificial collagen aqueous solution was diluted with a cultivation medium to prepare 0.10, 0.20, 0.30, 0.40, and 0.50% (W/V) artificial collagen aqueous solutions. Then, cultivation was performed for 4, 7, 14, and 21 days. It should be noted that a 0% (W/V) artificial collagen aqueous solution was used as a control.
(§4) After the completion of the above-mentioned cultivation, the cartilage cells were collected, and RNA extraction was performed by using RNeasy (registered trademark) Mini Kit (QIAGEN). A reverse transcription reaction was performed by using QuantiTect (registered trademark) Reverse Transcription Kit (QIAGEN). To be more specific, Real-time PCR was performed by the following method.
(§5) The model used for Real-time PCR was ABI PRISM 7000 (Applied Biosystems), and the reagents used were Real-time PCR Master Mix (TOYOBO) and Pre-Developed TaqMan & reg; Assay Reagents Eukaryotic 18S rRNA (Applied Biosystems), TaqMan & reg; Probe kit (Applied Biosystems).
(§6) At 50° C. for 2 minutes, at 95° C. for 10 minutes (at 95° C. for 15 seconds, at 60° C. for 1 minute)×40 cycles.

[3] = test system: aggrecan mRNA; assay: Aggrecan mRNA amount in cartilage cells by addition of artificial collagen aqueous solution (real-time PCR); format: cell-based, New Zealand white rabbits; details: relative to 0% defined as 1
Protocol: as §1, §2, §3, §4, §5, §6

[4] = test system: cartilage defect model; assay: Cartilage regeneration by intraarticular administration in cartilage defect model (modified ICRS score, Safranin-0 staining, type 2 collagen immunostaining); format: in vivo, New Zealand white domestic rabbits; details: for macroscopic observation of knee joints: collected Week 7; for Safranin-0-stained area ratio compared to control group / Safranin-0 stained area compared to control group / type 2 collagen antibody-immunostained area compared to control group / type 2 collagen antibody-immunostained area ratio compared to control group: intraarticular
Protocol: A cartilage defect with a diameter of 5 mm was made on the patellofemoral joint of each of 18 knees of 9 New Zealand white domestic rabbits (22 week-old, 3.4 to 3.8 kg) after anesthesia, and further, a wound was sutured to prepare a cartilage defect model (Week 0). The 18 knees were divided into 3 groups, and on Week 1, Week 3, and Week 5, physiological saline was administered for a control group, and an intraarticular injection (0.1 ml/kg) was performed for an artificial collagen aqueous solution administration group. After that, knee joints were collected on Week 7. The ICRS score in Table 4 below is an evaluation method generally used when cartilage grafting to a cartilage defect is performed. The inventors of the present invention adopted, as an evaluation method in the case of administering a medicament without performing cartilage grafting, a modified ICRS score, which is an evaluation method involving using two items of “Degree of defect repair” and “Macroscopic appearance” and performing evaluation with a total score of 0 to 8. […] As recognized from the result of modified ICRS score described in FIG. 12, cartilage regeneration could be achieved by the intraarticular administration of the artificial collagen aqueous solution as the substrate for cartilage cultivation of the present invention. It should be noted that the results with a modified ICRS score are expressed as an average of scores of 6 knees for the control group, an average of 6 knees for the 0.1% (W/V) group, and an average of 6 knees for the 0.5% (W/V) group. In addition, a Mann-Whitney U test was used for statistics. […] The stained areas of the 0.1% (W/V) artificial collagen administration group and the 0.5% (W/V) artificial collagen administration group were larger compared to the stained area of the control group. In particular, a proteoglycan was present in a large amount. In addition, the stained area ratios of the 0.1% (W/V) artificial collagen administration group and the 0.5% (W/V) artificial collagen administration group were larger compared to the stained area ratio of the control group. […] The stained areas of the 0.1% (W/V) artificial collagen administration group and the 0.5% (W/V) artificial collagen administration group were larger compared to the stained area of the control group. In addition, the stained area ratios of the 0.1% (W/V) artificial collagen administration group and the 0.5% (W/V) artificial collagen administration group were larger compared to the stained area ratio of the control group.

Question: What does the source list for “Poly(Tripeptide-6) [artificial collagen aqueous solution]”?
Answer: proteoglycan production ([1]; 0.10% (W/V)): significantly enhanced; proteoglycan production ([1]; 0.20% (W/V)): significantly enhanced; proteoglycan production ([1]; 0.30% (W/V)): significantly enhanced; proteoglycan production ([1]; 0.40% (W/V)): significantly enhanced; proteoglycan production ([1]; 0.50% (W/V)): significantly enhanced; type 2 collagen mRNA expression ([2]; Day 4, 0.10% (W/V)): significantly enhanced; type 2 collagen mRNA expression ([2]; Day 7, 0.40% (W/V)): lowered; type 2 collagen mRNA expression ([2]; Day 7, 0.50% (W/V)): lowered; type 2 collagen mRNA expression ([2]; Day 21, 0.40% (W/V)): lowered; type 2 collagen mRNA expression ([2]; Day 21, 0.50% (W/V)): lowered; aggrecan mRNA amount ([3]; Day 4, the respective concentrations (0.10 to 0.50% (W/V))): no significant change; aggrecan mRNA amount ([3]; Day 7, the respective concentrations (0.10 to 0.50% (W/V))): no significant change; aggrecan mRNA amount ([3]; Day 21, 0.20% (W/V)): significantly lowered; aggrecan mRNA amount ([3]; Day 21, 0.30% (W/V)): significantly lowered; aggrecan mRNA amount ([3]; Day 21, 0.40% (W/V)): significantly lowered; aggrecan mRNA amount ([3]; Day 21, 0.50% (W/V)): significantly lowered; modified ICRS score vs control group ([4]; 0.1% (W/V), intraarticular 0.1 ml/kg on Week 1, 3, 5, Week 7, Mann-Whitney U test): significant difference; macroscopic observation of knee joints ([4]; 0.1% (W/V), intraarticular 0.1 ml/kg on Week 1, 3, 5): many knee joints have smooth surfaces; Safranin-0-stained area ratio compared to control group ([4]; 0.1% (W/V), Week 7): larger; Safranin-0 stained area compared to control group ([4]; 0.1% (W/V), Week 7): larger; type 2 collagen antibody-immunostained area compared to control group ([4]; 0.1% (W/V), Week 7): larger; type 2 collagen antibody-immunostained area ratio compared to control group ([4]; 0.1% (W/V), Week 7): larger; macroscopic observation of knee joints ([4]; 0.5% (W/V), intraarticular 0.1 ml/kg on Week 1, 3, 5): many sparse fissures; Safranin-0-stained area ratio compared to control group ([4]; 0.5% (W/V), Week 7): larger; Safranin-0 stained area compared to control group ([4]; 0.5% (W/V), Week 7): larger; type 2 collagen antibody-immunostained area compared to control group ([4]; 0.5% (W/V), Week 7): larger; type 2 collagen antibody-immunostained area ratio compared to control group ([4]; 0.5% (W/V), Week 7): larger
